The text below walks through data of PubChem BioAssay (NCI).

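Growth conditions: 96-well plates. Treatment: test compound, 48 hours, 5 concentrations. Analysis: linear interpolation between bracketing concentrations; unreached endpoints set to highest concentration. Abbreviation: GI50, concentration required for 50% inhibition of growth. TGI: total growth inhibition.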

The first test concerns EKVX NSCLC. Briefly: DTP human tumour cell line panel, 48 h.
Molecule `Cc1c2ccncc2c(C)c2c1[nH]c1ccc(O)c(OCC(F)(F)F)c12` had a TGI of 20.5 µM.
On the same count and under the same terms, as for `CC(C)(C)OC(=O)NC1CCCC1=O` (stereo unspecified), the figure is over 100 µM; as for `Cc1c(C(=O)/C=C/c2ccccc2[N+](=O)[O-])[n+](=O)c2ccccc2n1[O-]`, 27.6 µM; as for `Cc1cccc(C)c1N1C(=O)C(=O)C(c2nc3ccccc3s2)/C(=N/NC(=O)NN)C1=O` (stereo unspecified), over 100 µM.
Same read-out and setting: as for `CCCCCCC(C)CCCCCCCCCCC(=O)O` (stereo unspecified), the figure is over 100 µM; as for `CC(C)(C)c1ccc(OC2CCO2)cc1` (stereo unspecified), 90.1 µM.
Regarding `CC1(O)CCn2c(=O)c3cc4ccccc4cc3c(=O)n2C1O` (stereo unspecified), the TGI was over 100 µM.
The same measure, in the same setting: as for `CC(C)[O-].CC(C)[O-].O=c1cccccc1[O-].O=c1cccccc1[O-].[Ti+4]`, the figure is over 100 µM; as for `COc1cc(CNc2nc3ccc(C(F)(F)F)cc3nc2-c2ccccc2)cc(OC)c1OC`, 59.6 µM.
In the case of `CSc1ccc(N(C)c2nc(C)nc3c2CCC3)cc1`, the GI50 is under 0.01 µM and the TGI came to 82 µM.
Consider `COc1ccccc1NC(=O)/C(=C/c1ccccc1)C(C)=O`, for which the TGI was over 100 µM.
Same read-out and setting: as for `CC(=O)n1c(=O)c2cc3c(=O)n(-c4cccc(C#N)c4)c(=O)c3cc2c1=O`, the figure is over 100 µM; as for `O=C(CC1(O)C(=O)Nc2c(Cl)ccc(Cl)c21)c1ccc(Cl)cc1Cl` (stereo unspecified), 44 µM.
In the case of `CC1=NN(C(=O)c2ccncc2)C(=O)C1N=Nc1ccc(F)cc1` (stereo unspecified), the TGI was over 100 µM.
Molecule `C=C1C2Oc3ccccc3C1N(c1ccccc1)O2` (stereo unspecified) returned a TGI of over 100 µM.
The molecule `C=CCNC(=O)N(CCC)CCCC(NC(C)=O)C(=O)NCc1ccccc1` (stereo unspecified) returned a TGI of over 100 µM.
Still for that read-out and setting: with `CN(C)C(=S)Nc1nnc(Nc2ccccc2)s1` the figure was over 100 µM.
Still for that read-out and setting: as for `CCOC(=O)C1(Cc2ccc3ccccc3c2)CCCCC(=O)N1` (stereo unspecified), the figure is over 100 µM.
For `C[C@]12C/C(=C/O)C(=O)C(O)=C1CC[C@@H]1C2CC[C@@]2(C)C1CC[C@@H]2O` (stereo partly specified), the TGI turned out to be 72.8 µM.
Still for that read-out and setting: with `CC(C)(C)NCC(COc1ccc([N+](=O)[O-])cc1)OP(c1ccccc1)c1ccccc1` (stereo unspecified) the figure was over 100 µM.
The same measure, in the same setting: as for `N#CC(C#N)=c1c2nsnc2c(=C(C#N)C#N)c2nsnc12`, the figure is 14.9 µM.
On the same count and under the same terms, with `Cc1nc(-c2cccnc2)sc1C(=O)/C=C/c1cccc([N+](=O)[O-])c1` the figure was over 100 µM.

The next test concerns SK-MEL-2 melanoma. Nature of the test: DTP human tumour cell line panel, 48 h.
In the case of `Cc1c2ccncc2c(C)c2c1[nH]c1ccc(O)c(OCC(F)(F)F)c12`, the TGI is 22.9 µM. This counts as double-digit micromolar.
For the molecule `CC(C)(C)OC(=O)NC1CCCC1=O` (stereo unspecified), the TGI is over 100 µM.
Same read-out and setting: as for `Cc1c(C(=O)/C=C/c2ccccc2[N+](=O)[O-])[n+](=O)c2ccccc2n1[O-]`, the figure is 24.1 µM.
As to `O=C1[C@H]2ON(c3ccccc3)C(c3ccco3)[C@H]2C(=O)N1c1ccc(Cc2ccc(N3C(=O)[C@@H]4ON(c5ccccc5)C(c5ccco5)[C@@H]4C3=O)cc2)cc1` (stereo partly specified), the TGI is over 100 µM.
Molecule `Cc1cccc(C)c1N1C(=O)C(=O)C(c2nc3ccccc3s2)/C(=N/NC(=O)NN)C1=O` (stereo unspecified) gave a TGI of over 100 µM.
Same read-out and setting: with `CCCCCCC(C)CCCCCCCCCCC(=O)O` (stereo unspecified) the figure was over 100 µM; with `CC1(O)CCn2c(=O)c3cc4ccccc4cc3c(=O)n2C1O` (stereo unspecified), over 100 µM; with `CC(C)[O-].CC(C)[O-].O=c1cccccc1[O-].O=c1cccccc1[O-].[Ti+4]`, over 100 µM.
Same read-out and setting: with `COc1cc(CNc2nc3ccc(C(F)(F)F)cc3nc2-c2ccccc2)cc(OC)c1OC` the figure was over 100 µM.
In the case of `CSc1ccc(N(C)c2nc(C)nc3c2CCC3)cc1`, the GI50 is under 0.01 µM and the TGI came to 38.8 µM.
For the molecule `COc1ccccc1NC(=O)/C(=C/c1ccccc1)C(C)=O`, the TGI was over 100 µM.
Same read-out and setting: as for `CC(=O)n1c(=O)c2cc3c(=O)n(-c4cccc(C#N)c4)c(=O)c3cc2c1=O`, the figure is over 100 µM.
On the same count and under the same terms, as for `O=C(CC1(O)C(=O)Nc2c(Cl)ccc(Cl)c21)c1ccc(Cl)cc1Cl` (stereo unspecified), the figure is 48.9 µM.
The same measure, in the same setting: as for `CC1=NN(C(=O)c2ccncc2)C(=O)C1N=Nc1ccc(F)cc1` (stereo unspecified), the figure is over 100 µM; as for `C=C1C2Oc3ccccc3C1N(c1ccccc1)O2` (stereo unspecified), over 100 µM; as for `C=CCNC(=O)N(CCC)CCCC(NC(C)=O)C(=O)NCc1ccccc1` (stereo unspecified), over 100 µM.
`CN(C)C(=S)Nc1nnc(Nc2ccccc2)s1` returned a concentration for total growth inhibition (TGI) of over 100 µM.
As to `C[C@]12C/C(=C/O)C(=O)C(O)=C1CC[C@@H]1C2CC[C@@]2(C)C1CC[C@@H]2O` (stereo partly specified), the TGI was found to be 55.4 µM.
Still for that read-out and setting: with `CC(C)(C)NCC(COc1ccc([N+](=O)[O-])cc1)OP(c1ccccc1)c1ccccc1` (stereo unspecified) the figure was over 100 µM.
The molecule `N#CC(C#N)=c1c2nsnc2c(=C(C#N)C#N)c2nsnc12` showed a TGI of 3.53 µM. This counts as single-digit micromolar.
As for `Cc1nc(-c2cccnc2)sc1C(=O)/C=C/c1cccc([N+](=O)[O-])c1`, the TGI was over 100 µM.

The next test has as its system SN12C renal. Nature of the test: DTP human tumour cell line panel, 48 h.
The molecule `Cc1c2ccncc2c(C)c2c1[nH]c1ccc(O)c(OCC(F)(F)F)c12` gave a TGI of 20.8 µM.
The same measure, in the same setting: as for `CC(C)(C)OC(=O)NC1CCCC1=O` (stereo unspecified), the figure is over 100 µM; as for `Cc1c(C(=O)/C=C/c2ccccc2[N+](=O)[O-])[n+](=O)c2ccccc2n1[O-]`, 18.6 µM; as for `O=C1[C@H]2ON(c3ccccc3)C(c3ccco3)[C@H]2C(=O)N1c1ccc(Cc2ccc(N3C(=O)[C@@H]4ON(c5ccccc5)C(c5ccco5)[C@@H]4C3=O)cc2)cc1` (stereo partly specified), over 100 µM.
On the same count and under the same terms, with `Cc1cccc(C)c1N1C(=O)C(=O)C(c2nc3ccccc3s2)/C(=N/NC(=O)NN)C1=O` (stereo unspecified) the figure was over 100 µM; with `CCCCCCC(C)CCCCCCCCCCC(=O)O` (stereo unspecified), over 100 µM; with `CC(C)(C)c1ccc(OC2CCO2)cc1` (stereo unspecified), 38.1 µM.
Same read-out and setting: with `CC1(O)CCn2c(=O)c3cc4ccccc4cc3c(=O)n2C1O` (stereo unspecified) the figure was over 100 µM.
For `COc1cc(CNc2nc3ccc(C(F)(F)F)cc3nc2-c2ccccc2)cc(OC)c1OC`, the TGI was over 100 µM.
In the case of `CSc1ccc(N(C)c2nc(C)nc3c2CCC3)cc1`, the GI50 is under 0.01 µM and the TGI was over 100 µM.
Regarding `COc1ccccc1NC(=O)/C(=C/c1ccccc1)C(C)=O`, the TGI is over 100 µM.
As to `CC(=O)n1c(=O)c2cc3c(=O)n(-c4cccc(C#N)c4)c(=O)c3cc2c1=O`, the TGI is over 100 µM.
For `O=C(CC1(O)C(=O)Nc2c(Cl)ccc(Cl)c21)c1ccc(Cl)cc1Cl` (stereo unspecified), the TGI stood at 30.5 µM.
The same measure, in the same setting: with `CC1=NN(C(=O)c2ccncc2)C(=O)C1N=Nc1ccc(F)cc1` (stereo unspecified) the figure was over 100 µM; with `C=C1C2Oc3ccccc3C1N(c1ccccc1)O2` (stereo unspecified), 88.1 µM.
The molecule `C=CCNC(=O)N(CCC)CCCC(NC(C)=O)C(=O)NCc1ccccc1` (stereo unspecified) registered a TGI of over 100 µM.
Turning to `CN(C)C(=S)Nc1nnc(Nc2ccccc2)s1`, the TGI is over 100 µM.
On the same count and under the same terms, with `CCOC(=O)C1(Cc2ccc3ccccc3c2)CCCCC(=O)N1` (stereo unspecified) the figure was over 100 µM.
Turning to `C[C@]12C/C(=C/O)C(=O)C(O)=C1CC[C@@H]1C2CC[C@@]2(C)C1CC[C@@H]2O` (stereo partly specified), the TGI worked out at 61.1 µM.
Same read-out and setting: as for `CC(C)(C)NCC(COc1ccc([N+](=O)[O-])cc1)OP(c1ccccc1)c1ccccc1` (stereo unspecified), the figure is over 100 µM.
`Cc1nc(-c2cccnc2)sc1C(=O)/C=C/c1cccc([N+](=O)[O-])c1`: the TGI was over 100 µM.

Another test concerns A549 NSCLC. Nature of the test: DTP human tumour cell line panel, 48 h.
In turn, `Cc1c2ccncc2c(C)c2c1[nH]c1ccc(O)c(OCC(F)(F)F)c12` came in with a TGI of 16.5 µM.
Still for that read-out and setting: as for `CC(C)(C)OC(=O)NC1CCCC1=O` (stereo unspecified), the figure is over 100 µM; as for `Cc1c(C(=O)/C=C/c2ccccc2[N+](=O)[O-])[n+](=O)c2ccccc2n1[O-]`, 34.3 µM; as for `O=C1[C@H]2ON(c3ccccc3)C(c3ccco3)[C@H]2C(=O)N1c1ccc(Cc2ccc(N3C(=O)[C@@H]4ON(c5ccccc5)C(c5ccco5)[C@@H]4C3=O)cc2)cc1` (stereo partly specified), over 100 µM.
The same measure, in the same setting: as for `Cc1cccc(C)c1N1C(=O)C(=O)C(c2nc3ccccc3s2)/C(=N/NC(=O)NN)C1=O` (stereo unspecified), the figure is over 100 µM; as for `CCCCCCC(C)CCCCCCCCCCC(=O)O` (stereo unspecified), over 100 µM; as for `CC(C)(C)c1ccc(OC2CCO2)cc1` (stereo unspecified), over 100 µM.
`CC1(O)CCn2c(=O)c3cc4ccccc4cc3c(=O)n2C1O` (stereo unspecified) gave a TGI of over 100 µM.
Same read-out and setting: as for `CC(C)[O-].CC(C)[O-].O=c1cccccc1[O-].O=c1cccccc1[O-].[Ti+4]`, the figure is over 100 µM.
`COc1cc(CNc2nc3ccc(C(F)(F)F)cc3nc2-c2ccccc2)cc(OC)c1OC` gave a TGI of over 100 µM.
In the case of `CSc1ccc(N(C)c2nc(C)nc3c2CCC3)cc1`, the GI50 was under 0.01 µM and the TGI is over 100 µM.
`COc1ccccc1NC(=O)/C(=C/c1ccccc1)C(C)=O`: the concentration for total growth inhibition (TGI) was over 100 µM.
Consider `CC(=O)n1c(=O)c2cc3c(=O)n(-c4cccc(C#N)c4)c(=O)c3cc2c1=O`, for which the TGI is over 100 µM.
Same read-out and setting: as for `O=C(CC1(O)C(=O)Nc2c(Cl)ccc(Cl)c21)c1ccc(Cl)cc1Cl` (stereo unspecified), the figure is 47.2 µM.
Molecule `CC1=NN(C(=O)c2ccncc2)C(=O)C1N=Nc1ccc(F)cc1` (stereo unspecified) showed a TGI of over 100 µM.
Still for that read-out and setting: with `C=C1C2Oc3ccccc3C1N(c1ccccc1)O2` (stereo unspecified) the figure was over 100 µM.
On to `C=CCNC(=O)N(CCC)CCCC(NC(C)=O)C(=O)NCc1ccccc1` (stereo unspecified), for which the TGI is over 100 µM.
The same measure, in the same setting: as for `CN(C)C(=S)Nc1nnc(Nc2ccccc2)s1`, the figure is over 100 µM; as for `CCOC(=O)C1(Cc2ccc3ccccc3c2)CCCCC(=O)N1` (stereo unspecified), over 100 µM; as for `C[C@]12C/C(=C/O)C(=O)C(O)=C1CC[C@@H]1C2CC[C@@]2(C)C1CC[C@@H]2O` (stereo partly specified), over 100 µM.
On the same count and under the same terms, with `CC(C)(C)NCC(COc1ccc([N+](=O)[O-])cc1)OP(c1ccccc1)c1ccccc1` (stereo unspecified) the figure was over 100 µM; with `N#CC(C#N)=c1c2nsnc2c(=C(C#N)C#N)c2nsnc12`, 10.3 µM.
The same measure, in the same setting: with `Cc1nc(-c2cccnc2)sc1C(=O)/C=C/c1cccc([N+](=O)[O-])c1` the figure was over 100 µM.

Another test has as its system NCI-H23 lung. Nature of the test: DTP human tumour cell line panel, 48 h.
`Cc1c2ccncc2c(C)c2c1[nH]c1ccc(O)c(OCC(F)(F)F)c12` gave a TGI of 19.4 µM.
In turn, `CC(C)(C)OC(=O)NC1CCCC1=O` (stereo unspecified) returned a TGI of over 100 µM.
`Cc1c(C(=O)/C=C/c2ccccc2[N+](=O)[O-])[n+](=O)c2ccccc2n1[O-]` displayed a TGI of 17.8 µM.
The same measure, in the same setting: as for `O=C1[C@H]2ON(c3ccccc3)C(c3ccco3)[C@H]2C(=O)N1c1ccc(Cc2ccc(N3C(=O)[C@@H]4ON(c5ccccc5)C(c5ccco5)[C@@H]4C3=O)cc2)cc1` (stereo partly specified), the figure is over 100 µM.
The same measure, in the same setting: as for `Cc1cccc(C)c1N1C(=O)C(=O)C(c2nc3ccccc3s2)/C(=N/NC(=O)NN)C1=O` (stereo unspecified), the figure is over 100 µM.

One may read the TGI as the concentration at which net growth stops. The term GI50 denotes the concentration that inhibits growth by half.
